Laboratory results from patent publication US20020082452A1, “alpha-sulfin-and alpha-sulfonamino acid amides” (priority 1998, published 2002).

Legend:
Assay type in all cases: in vivo
Phytophthora [1] = assay: D-2: Action against Phytophthora on tomato plants (residual-protective and systemic action); settings: spray mixture 0.02% active ingredient (sprayed or watered), evaluated after 4-5 days at 90-100% relative humidity and 20° C.
Protocol: D-2: Action Against Phytophthora on Tomato Plants
(§1) a) Residual-Protective Action
(§2) After a cultivation period of 3 weeks, tomato plants are sprayed with a spray mixture (0.02% active ingredient) prepared from a wettable powder formulation of the test compound. After 48 hours, the treated plants are infected with a sporangia suspension of the fungus. Fungus infestation is evaluated after incubation of the infected plants for 5 days at 90-100% relative humidity and 20° C.
as §2, with “watered” for “sprayed”, “ingredient based on the volume of the soil)” for “ingredient)”, “compound. […]” for “compound.”, “96” for “48”, “4” for “5”, “C. […] Compounds A1.02, A1.03, A1.04, A1.03, A1.05, A1.06, A1.07, A1.09, A1.10, A1.13, A1.14, A1.15, A1.16, A1.21, A1.23.” for “C.”

Phytophthora [2] = assay: D-3: Action against Phytophthora on potato plants (residual-protective and systemic action); settings: potato plants (Bintje variety), spray mixture 0.02% active ingredient (sprayed or watered), evaluated after 4 days at 90-100% relative humidity and 20° C.
Protocol: D-3 Action Against Phytophthora on Potato Plants
as §1
(§3) 2-3 week old potato plants (Bintje variety) are sprayed with a spray mixture (0.02% active ingredient) prepared from a wettable powder formulation of the test compound. After 48 hours, the treated plants are infected with a sporangia suspension of the fungus. Fungus infestation is evaluated after incubation of the infected plants for 4 days at 90-100% relative humidity and 20° C.
as §3, with “watered” for “sprayed”, “ingredient based on the volume of the soil)” for “ingredient)”, “compound. […]” for “compound.”, “C. Fungal infestation is effectively controlled with compounds of Tables 1 to 37. Compounds A1.02, A1.03, A1.04, A1.03, A1.05, A1.06, A1.07, A1.09, A1.10, A1.13, A1.14, A1.15, A1.16, A1.21, A1.23.” for “C.”

Plasmopara viticola = assay: D-1: Action against Plasmopara viticola on vines (residual-protective and residual-curative action); settings: vine seedlings, spray mixture 0.02% active ingredient, evaluated after 6 days at 95-100% relative humidity and 20° C.
Protocol: D-1: Action against Plasmopara viticola on Vines a) Residual-Protective Action
Vine seedlings are sprayed at the 4- to 5-leaf stage with a spray mixture (0.02% active ingredient) prepared from a wettable powder formulation of the test compound. After 24 hours, the treated plants are infected with a sporangia suspension of the fungus. Fungus infestation is evaluated after incubation for 6 days at 95-100% relative humidity and 20° C. […]
b) Residual-Curative Action
Vine seedlings are infected at the 4- to 5-leaf stage with a sporangia suspension of the fungus. After incubation for 24 hours in a humidity chamber at 95-100% relative humidity and 20° C., the infected plants are dried and sprayed with a spray mixture (0.02% active ingredient) prepared from a wettable powder formulation of the test compound. After the spray coating has dried, the treated plants are placed in the humidity chamber again. Fungus infestation is evaluated 6 days after infection. […] Compounds A1.02, A1.03, A1.04, A1.03, A1.5, A1.06, A1.07, A1.09, A1.10, A1.13, A1.14, A1.15, A1.16, A1.21, A1.23.

Measured: Fungus infestation

CC[C@H](NS(=O)(=O)CC)C(=O)NCCc1ccc(OCCOc2ccc(Cl)cc2)c(OC)c1 [Compound A1.15]
completely inhibit fungal infestation: all assays above

CCS(=O)(=O)N[C@H](C(=O)NCCc1ccc(OCCOc2cccc(F)c2)c(OC)c1)C(C)C [Compound A1.23]
completely inhibit fungal infestation: all assays above

CCS(=O)(=O)N[C@H](C(=O)NCCc1ccc(OC/C=C\c2ccccc2)c(OC)c1)C(C)C [Compound A3.02]
completely inhibit fungal infestation: all assays above

C#CCC(NS(=O)(=O)CC)C(=O)NCCc1ccc(OCC=Cc2ccc(Cl)cc2)c(OC)c1 (racemic) [Compound A1.108]
completely inhibit fungal infestation: all assays above

CCS(=O)(=O)N[C@H](C(=O)NCCc1ccc(OCCOc2ccccc2Cl)c(OC)c1)C(C)C [Compound A1.21]
completely inhibit fungal infestation: all assays above

COc1cc(CCNC(=O)C(NS(C)(=O)=O)C(C)C)ccc1OC(C)COc1ccc(Cl)cc1 (mixture of isomers) [Compound A1.80]
completely inhibit fungal infestation: all assays above

CCC[C@H](NS(=O)(=O)CC)C(=O)NCCc1ccc(OCCOc2ccc(Cl)cc2)c(OC)c1 [Compound A1.16]
completely inhibit fungal infestation: all assays above

CCS(=O)(=O)N[C@H](C(=O)NCCc1ccc(OC/C=C/c2ccccc2F)c(OC)c1)C(C)C [Compound A2.09]
completely inhibit fungal infestation: all assays above

COc1cc(CCNC(=O)[C@@H](NS(C)(=O)=O)C(C)C)ccc1OCCOc1ccc(Cl)cc1 [Compound A1.14]
completely inhibit fungal infestation: all assays above

CC[C@H](NS(=O)(=O)CC)C(=O)NCCc1ccc(OCCOc2ccc(F)cc2)c(OC)c1 [Compound A1.05]
completely inhibit fungal infestation: all assays above

CCS(=O)(=O)N[C@H](C(=O)NCCc1ccc(OCCOc2ccc(Cl)cc2)c(OC)c1)C(C)C [Compound A1.13]
completely inhibit fungal infestation: all assays above

CCC[C@H](NS(=O)(=O)CC)C(=O)NCCc1ccc(OCCOc2ccc(F)cc2)c(OC)c1 [Compound A1.04]
completely inhibit fungal infestation: all assays above

CCS(=O)(=O)N[C@H](C(=O)NCCc1ccc(OCCOc2cccc(C)c2)c(OC)c1)C(C)C [Compound A1.25]
completely inhibit fungal infestation: all assays above

COc1cc(CCNC(=O)[C@@H](NS(=O)(=O)N(C)C)C(C)C)ccc1OCCOc1ccc(F)cc1 [Compound A1.03]
completely inhibit fungal infestation: all assays above

COc1cc(CCNC(=O)[C@@H](NS(C)(=O)=O)C(C)C)ccc1OCCOc1ccccc1 [Compound A1.07]
completely inhibit fungal infestation: all assays above

COc1cc(CCNC(=O)[C@@H](NS(C)(=O)=O)C(C)C)ccc1OC/C=C/c1ccccc1F [Compound A2.10]
completely inhibit fungal infestation: all assays above

CCS(=O)(=O)N[C@H](C(=O)NCCc1ccc(OCC=Cc2ccc(Cl)cc2)c(OC)c1)C1CCC1 [Compound A1.107]
completely inhibit fungal infestation: all assays above

CCS(=O)(=O)N[C@H](C(=O)NCCc1ccc(OCCOc2ccccc2)c(OC)c1)C(C)C [Compound A1.06]
completely inhibit fungal infestation: all assays above

CCS(=O)(=O)N[C@H](C(=O)NCCc1ccc(OCCOc2ccc(C)cc2)c(OC)c1)C(C)C [Compound A1.24]
completely inhibit fungal infestation: all assays above

COc1cc(CCNC(=O)[C@@H](NS(C)(=O)=O)C(C)C)ccc1OCCOc1ccc(F)cc1 [Compound A1.02]
completely inhibit fungal infestation: all assays above

CCC[C@H](NS(=O)(=O)CC)C(=O)NCCc1ccc(OCCOc2ccccc2)c(OC)c1 [Compound A1.09]
completely inhibit fungal infestation: all assays above

CCS(=O)(=O)N[C@H](C(=O)NCCc1ccc(OC/C=C/c2ccc(Cl)cc2)c(OC)c1)C(C)C [Compound A2.03]
completely inhibit fungal infestation: all assays above

COc1cc(CCNC(=O)[C@@H](NS(C)(=O)=O)C(C)C)ccc1OC/C=C/c1ccc(Br)cc1 [Compound A2.16]
completely inhibit fungal infestation: all assays above

COc1cc(CCNC(=O)[C@@H](NS(C)(=O)=O)C(C)C)ccc1OCCOc1cccc(F)c1 [Compound A1.76]
completely inhibit fungal infestation: all assays above
